Reference: ChEMBL document CHEMBL1154996, “Inhibitors of dipeptidyl peptidase 8 and dipeptidyl peptidase 9. Part 2: isoindoline containing inhibitors” (Bioorg Med Chem Lett, 2008)
Active and inactive are the calls of the source. The calls are words filed in the database; no cut-off is given here.

Columns and labels:
[1] = target: Dipeptidyl peptidase 4 (Homo sapiens, UniProt P27487); test: Inhibition of DPP4
[2] = target: Dipeptidyl peptidase 8 (Homo sapiens, UniProt Q6V1X1); test: Inhibition of DPP8
Dipeptidyl peptidase 8, sequence (Q6V1X1 whole entry): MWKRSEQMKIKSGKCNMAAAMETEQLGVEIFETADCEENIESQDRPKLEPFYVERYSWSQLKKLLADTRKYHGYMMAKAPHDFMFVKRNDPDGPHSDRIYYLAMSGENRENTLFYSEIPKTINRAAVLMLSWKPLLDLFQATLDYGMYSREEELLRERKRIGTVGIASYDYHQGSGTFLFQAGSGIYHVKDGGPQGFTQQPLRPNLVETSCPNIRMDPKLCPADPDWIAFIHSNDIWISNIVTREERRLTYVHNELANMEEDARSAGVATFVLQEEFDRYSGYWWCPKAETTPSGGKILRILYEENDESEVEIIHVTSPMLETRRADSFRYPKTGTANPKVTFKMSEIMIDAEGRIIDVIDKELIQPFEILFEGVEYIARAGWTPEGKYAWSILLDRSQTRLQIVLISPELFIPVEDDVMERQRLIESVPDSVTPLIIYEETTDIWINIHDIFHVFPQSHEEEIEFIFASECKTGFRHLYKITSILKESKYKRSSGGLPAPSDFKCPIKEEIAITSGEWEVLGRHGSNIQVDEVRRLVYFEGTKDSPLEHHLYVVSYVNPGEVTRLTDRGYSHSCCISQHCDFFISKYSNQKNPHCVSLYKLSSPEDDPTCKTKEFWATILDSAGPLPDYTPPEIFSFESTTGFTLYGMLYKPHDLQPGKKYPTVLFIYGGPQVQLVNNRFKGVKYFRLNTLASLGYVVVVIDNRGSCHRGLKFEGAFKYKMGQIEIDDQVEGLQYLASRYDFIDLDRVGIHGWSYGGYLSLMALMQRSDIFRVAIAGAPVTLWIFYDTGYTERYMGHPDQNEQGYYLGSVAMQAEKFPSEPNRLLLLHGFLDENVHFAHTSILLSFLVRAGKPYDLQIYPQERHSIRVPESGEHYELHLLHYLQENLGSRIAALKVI

[3] = target: Dipeptidyl peptidase 2 (Homo sapiens, UniProt Q9UHL4); test: Inhibition of DPP2
[4] = target: Dipeptidyl peptidase 9 (Homo sapiens, UniProt Q86TI2); test: Inhibition of DPP9
Dipeptidyl peptidase 9, sequence (Q86TI2 whole entry): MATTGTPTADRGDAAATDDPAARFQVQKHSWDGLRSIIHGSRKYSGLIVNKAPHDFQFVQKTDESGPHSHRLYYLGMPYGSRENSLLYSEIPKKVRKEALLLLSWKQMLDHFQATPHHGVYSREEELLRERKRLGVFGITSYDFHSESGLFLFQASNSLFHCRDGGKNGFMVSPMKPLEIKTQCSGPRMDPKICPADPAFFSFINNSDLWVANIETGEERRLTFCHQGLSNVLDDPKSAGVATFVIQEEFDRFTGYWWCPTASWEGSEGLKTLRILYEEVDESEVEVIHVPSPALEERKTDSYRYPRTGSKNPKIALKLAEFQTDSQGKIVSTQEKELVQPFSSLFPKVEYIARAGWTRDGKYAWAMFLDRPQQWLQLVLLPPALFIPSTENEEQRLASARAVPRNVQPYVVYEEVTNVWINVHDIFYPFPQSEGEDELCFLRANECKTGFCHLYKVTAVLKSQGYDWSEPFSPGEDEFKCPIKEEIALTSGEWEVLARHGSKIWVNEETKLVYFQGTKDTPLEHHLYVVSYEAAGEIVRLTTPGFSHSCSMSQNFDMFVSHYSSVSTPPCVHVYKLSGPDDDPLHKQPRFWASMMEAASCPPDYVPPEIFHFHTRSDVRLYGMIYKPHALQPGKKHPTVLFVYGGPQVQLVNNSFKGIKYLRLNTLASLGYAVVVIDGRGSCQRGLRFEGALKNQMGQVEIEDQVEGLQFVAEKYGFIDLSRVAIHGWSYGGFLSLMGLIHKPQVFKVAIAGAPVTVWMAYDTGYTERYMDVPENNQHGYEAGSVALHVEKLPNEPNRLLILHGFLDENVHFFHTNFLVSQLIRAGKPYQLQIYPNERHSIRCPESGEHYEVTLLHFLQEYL

SMILES	IC50 [1] [µM]	IC50 [2] [µM]	IC50 [3] [µM]	IC50 [4] [µM]	Activity [1]
CC[C@H](C)[C@H](N)C(=O)N1Cc2ccc(Br)cc2C1	> 100				
CC[C@@H](C)[C@H](N)C(=O)N1Cc2ccc(C(F)(F)F)cc2C1	> 100	> 100	12.6	> 100	
O=C([C@@H]1C[C@H](NCc2ccccc2)CN1)N1Cc2ccccc2C1	> 250				
O=C([C@@H]1C[C@@H](N(Cc2ccccc2)Cc2ccccc2)CN1)N1Cc2ccccc2C1	> 500		4.5	> 25	
CC[C@H](C)[C@H](N)C(=O)N1Cc2ccc(C(F)(F)F)cc2C1	> 100	> 100	13	> 100	
CC[C@H](C)[C@H](N)C(=O)N1Cc2cccc(C)c2C1	> 100	> 100	> 100	> 100	
N[C@@H](CCCCNC(=O)OCc1ccccc1)C(=O)N1Cc2ccccc2C1	245		2.5		
O=C([C@@H]1C[C@@H](Nc2ccc3ccccc3c2)CN1)N1Cc2ccccc2C1	> 250				
CC[C@H](C)[C@H](N)C(=O)N1Cc2ccc([N+](=O)[O-])cc2C1	> 50	> 50	66	> 25	
CC[C@H](C)[C@H](N)C(=O)N1Cc2ccc(C)cc2C1	> 100				
CC[C@H](C)[C@H](N)C(=O)N1Cc2cccc(F)c2C1	> 100				
O=C([C@@H]1C[C@H](N(c2ccc3ccccc3c2)c2ccc3ccccc3c2)CN1)N1Cc2ccccc2C1			> 100		
O=C([C@@H]1C[C@H](Nc2ccc3ccccc3c2)CN1)N1Cc2ccccc2C1	> 100				
CC[C@H](C)[C@H](N)C(=O)N1Cc2ccc(C(C)(C)C)cc2C1	> 100	> 100	> 100	> 100	
CC[C@@H](C)[C@H](N)C(=O)N1Cc2ccc(C)cc2C1	> 100				
N[C@@H](CCCCN(Cc1ccccc1)Cc1ccccc1)C(=O)N1Cc2ccccc2C1	> 62.5				
O=C([C@@H]1C[C@H](N(c2cccc3ccccc23)c2cccc3ccccc23)CN1)N1Cc2ccccc2C1					inactive
N[C@H]1CN[C@H](C(=O)N2Cc3ccccc3C2)C1	> 500				

Other lines, results leading:

IC50 [1] [µM]	IC50 [2] [µM]	IC50 [3] [µM]	IC50 [4] [µM]	Activity [1]	SMILES
> 50					N[C@@H](CCCCNCc1ccccc1)C(=O)N1Cc2ccccc2C1
> 100					CC[C@@H](C)[C@H](N)C(=O)N1Cc2cccc(F)c2C1
> 31.2					N[C@@H](CCCCN(c1ccc2ccccc2c1)c1ccc2ccccc2c1)C(=O)N1Cc2ccccc2C1
> 100	> 100	> 50			CC[C@H](C)[C@H](N)C(=O)N1Cc2ccc(N=[N+]=[N-])cc2C1
> 100		> 100			CC[C@H](C)[C@H](N)C(=O)N1Cc2cccnc2C1
4.97					O=C([C@@H]1C[C@H](Nc2cccc3ccccc23)CN1)N1Cc2ccccc2C1
178					N[C@@H](CCCCNc1ccc2ccccc2c1)C(=O)N1Cc2ccccc2C1
161					NCCCC[C@H](N)C(=O)N1Cc2ccccc2C1
> 1000					O=C([C@@H]1C[C@@H](NCc2ccccc2)CN1)N1Cc2ccccc2C1
> 100	> 25	2.6	> 50		CC[C@H](C)[C@H](N)C(=O)N1Cc2ccc(I)cc2C1
